Test results taken from US20090062253A1, “HETEROCYCLODIAZEPINE CANNABINOID RECEPTOR MODULATORS FOR TREATMENT OF DISEASE” (KALYPSYS, INC., priority 2007, published 2009).

Assays:
[1] = molecular target: T1, human cannabinoid receptor type 1 (Homo sapiens, UniProt P21554); assay: Human CB1 Radioligand Binding Assay (basis of selectivity CB2 vs. CB1)
T1 construct: purchased Perkin Elmer RBHCB1M; host or cells: HEK 293 EBNA cells
Method in brief: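 Filtration competition binding against [3H] CP-55,940 at its Kd, using membranes from HEK 293 EBNA cells expressing human CB1; 90 minutes at 30° C in 50 mM Tris-HCl pH 7.4, 2.5 mM EDTA, 5 mM MgCl2, 5.0 mg/ml BSA, 1% DMSO. Single point 10 uM or dose-response; 100 nM CP-55,940 defined 100% efficacy.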

Human CB2 = molecular target: T2, Human CB2 (Homo sapiens, UniProt P34972); assay: Human CB2 Radioligand Binding Assay; details: membranes from stably transfected CHO CB2 cells; competition with [3H] CP-55,940; read-out: CB2 Ligand Binding Asssay
T2 construct: expressed in transfected cells; membrane preparation
T2 sequence (P34972 whole entry): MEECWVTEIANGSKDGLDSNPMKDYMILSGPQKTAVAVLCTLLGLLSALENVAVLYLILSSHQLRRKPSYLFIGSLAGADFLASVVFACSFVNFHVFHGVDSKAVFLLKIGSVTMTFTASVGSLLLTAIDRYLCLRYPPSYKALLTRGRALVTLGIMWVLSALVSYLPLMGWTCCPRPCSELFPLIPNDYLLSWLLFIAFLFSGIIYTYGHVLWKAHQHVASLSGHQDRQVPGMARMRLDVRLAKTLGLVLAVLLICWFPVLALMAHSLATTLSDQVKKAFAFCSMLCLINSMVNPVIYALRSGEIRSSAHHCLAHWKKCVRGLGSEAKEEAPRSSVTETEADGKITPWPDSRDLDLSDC
Method in brief: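 Filtration competition against [3H]CP-55,940 at its Kd on membranes from CHO cells stably expressing human CB2; compounds at 10 uM single point or dose-response, 1% DMSO. Buffer 50 mM Tris-HCl pH 7.4, EGTA, MgCl2, 5.0 mg/ml BSA; 90 min at 30° C, scintillation read; 100 nM CP-55,940 = 100%.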

T1 sequence (P21554 whole entry): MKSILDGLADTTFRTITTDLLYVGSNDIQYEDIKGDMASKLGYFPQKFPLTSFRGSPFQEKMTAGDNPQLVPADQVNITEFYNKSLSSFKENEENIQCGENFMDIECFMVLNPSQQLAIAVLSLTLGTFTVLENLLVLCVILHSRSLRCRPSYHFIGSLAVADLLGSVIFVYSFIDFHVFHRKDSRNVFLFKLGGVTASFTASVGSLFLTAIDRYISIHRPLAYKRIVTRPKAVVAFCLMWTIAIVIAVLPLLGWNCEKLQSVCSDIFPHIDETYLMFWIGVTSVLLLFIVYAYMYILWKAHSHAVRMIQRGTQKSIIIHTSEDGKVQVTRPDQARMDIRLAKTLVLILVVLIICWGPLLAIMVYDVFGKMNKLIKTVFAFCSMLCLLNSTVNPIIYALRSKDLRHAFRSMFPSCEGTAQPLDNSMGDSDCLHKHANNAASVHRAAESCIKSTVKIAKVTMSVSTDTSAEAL

| Compound | Selectivity, CB2 vs. CB1 [1] | IC50 (radioligand displacement) (Human CB2) |
| --- | --- | --- |
| CC(C)(C)c1ccc(C2=C(NC(=O)Nc3ccc(Cl)cc3)CCCn3cccc32)cc1 [Example 83, (E)-1-(9-(4-tert-Butylphenyl)-6,7-dihydro-5H-pyrrolo[1,2-a]azepin-8-yl)-3-(4-chlorophenyl)urea] | + (+ indicates > 10-fold) | < 1000 nM |
| CC(C)(C)c1ccc(C2=C(NC(=O)Nc3ccc(F)cc3F)CCCn3cccc32)cc1 [Example 84, (E)-1-(9-(4-tert-Butylphenyl)-6,7-dihydro-5H-pyrrolo[1,2-a]azepin-8-yl)-3-(2,4-difluorophenyl)urea] | + (+ indicates > 10-fold) | < 1000 nM |
| CC(C)(C)c1ccc(C2=C(NC(=O)Nc3ccc(F)c(F)c3)CCCn3cccc32)cc1 [Example 85, (E)-1-(9-(4-tert-Butylphenyl)-6,7-dihydro-5H-pyrrolo[1,2-a]azepin-8-yl)-3-(3,4-difluorophenyl)urea] | + (+ indicates > 10-fold) | < 1000 nM |
| CC(C)(C)c1ccc(C2=C(NC(=O)Nc3ccc(Cl)cc3Cl)CCCn3cccc32)cc1 [Example 86, (E)-1-(9-(4-tert-Butylphenyl)-6,7-dihydro-5H-pyrrolo[1,2-a]azepin-8-yl)-3-(2,4-dichlorophenyl)urea] | + (+ indicates > 10-fold) | < 1000 nM |
| CC(C)(C)c1ccc(C2=C(NC(=O)Nc3ccc(Cl)c(Cl)c3)CCCn3cccc32)cc1 [Example 87, (E)-1-(9-(4-tert-Butylphenyl)-6,7-dihydro-5H-pyrrolo[1,2-a]azepin-8-yl)-3-(3,4-dichlorophenyl)urea] | + (+ indicates > 10-fold) | > 1000 nM |
| CC(C)(C)c1ccc(C2=C(NC(=O)Nc3ccc(C(F)(F)F)cc3)CCCn3cccc32)cc1 [Example 88, (E)-1-(9-(4-tert-Butylphenyl)-6,7-dihydro-5H-pyrrolo[1,2-a]azepin-8-yl)-3-(4-(trifluoromethyl)phenyl)urea] | + (+ indicates > 10-fold) | < 1000 nM |
| COc1ccc(COC(=O)NC2=C(c3ccc(C(C)(C)C)cc3)c3cccn3CCC2)cc1 [Example 89, (E)-4-Methoxybenzyl 9-(4-tert-butylphenyl)-6,7-dihydro-5H-pyrrolo[1,2-a]azepin-8-ylcarbamate] | − (− indicates < 10-fold) | > 1000 nM |
| CC(C)(C)c1ccc(C2c3cccn3CCCC2C(=O)Nc2ccc(F)c(F)c2)cc1 (stereo not drawn) [Example 91, 9-(4-tert-Butylphenyl)-N-(3,4-difluorophenyl)-6,7,8,9-tetrahydro-5H-pyrrolo[1,2-a]azepine-8-carboxamide] | + (+ indicates > 10-fold) | < 1000 nM |
| CC(C)(C)c1ccc(C2c3cccn3CCCC2C(=O)Nc2ccc(Cl)cc2)cc1 (stereo not drawn) [Example 92, 9-(4-tert-Butylphenyl)-N-(4-chlorophenyl)-6,7,8,9-tetrahydro-5H-pyrrolo[1,2-a]azepine-8-carboxamide] | + (+ indicates > 10-fold) | < 1000 nM |
| CC(C)(C)c1ccc(C2c3cccn3CCCC2C(=O)Nc2ccc(C(F)(F)F)cc2)cc1 (stereo not drawn) [Example 93, 9-(4-tert-Butylphenyl)-N-(4-(trifluoromethyl)phenyl)-6,7,8,9-tetrahydro-5H-pyrrolo[1,2-a]azepine-8-carboxamide] | − (− indicates < 10-fold) | < 1000 nM |
| CC(C)(C)c1ccc(C2c3cccn3CCCC2C(=O)Nc2ccc(OC(F)(F)F)cc2)cc1 (stereo not drawn) [Example 94, 9-(4-tert-Butylphenyl)-N-(4-(trifluoromethoxy)phenyl)-6,7,8,9-tetrahydro-5H-pyrrolo[1,2-a]azepine-8-carboxamide] | − (− indicates < 10-fold) | < 1000 nM |
| CC(C)(C)c1ccc(C2c3cccn3CCC2C(=O)Nc2ccc(C(F)(F)F)cc2)cc1 (stereo not drawn) [Example 96, 8-(4-tert-Butylphenyl)-N-(4-(trifluoromethyl)phenyl)-5,6,7,8-tetrahydroindolizine-7-carboxamide] | − (− indicates < 10-fold) | > 1000 nM |
| CC(C)(C)c1ccc(C2c3cccn3CCC2C(=O)Nc2ccc(OC(F)(F)F)cc2)cc1 (stereo not drawn) [Example 97, 8-(4-tert-Butylphenyl)-N-(4-(trifluoromethoxy)phenyl)-5,6,7,8-tetrahydroindolizine-7-carboxamide] | − (− indicates < 10-fold) | > 1000 nM |
| CC(C)(C)c1ccc(C2[C@@H]3CCCN3CCCN2C(=O)Nc2ccc(F)c(F)c2)cc1 (stereo partly drawn) [Example 130, (9aS)-1-(4-tert-Butylphenyl)-N-(3,4-difluorophenyl)hexahydro-1H-pyrrolo[1,2-a][1,4]diazepine-2(3H)-carboxamide] | + (+ indicates > 10-fold) | < 1000 nM |
| CC(C)(C)c1ccc(C2[C@@H]3CCCN3CCCN2C(=O)Nc2ccc(Cl)cc2)cc1 (stereo partly drawn) [Example 131, (9aS)-1-(4-tert-Butylphenyl)-N-(4-chlorophenyl)hexahydro-1H-pyrrolo[1,2-a][1,4]diazepine-2(3H)-carboxamide] | + (+ indicates > 10-fold) | < 1000 nM |
| CC(C)(C)c1ccc(C2=C(C(=O)Nc3ccc(C(F)(F)F)cc3)CCn3cccc32)cc1 [Example 132, 8-(4-tert-Butylphenyl)-N-(4-(trifluoromethyl)phenyl)-5,6-dihydroindolizine-7-carboxamide] | − (− indicates < 10-fold) | < 1000 nM |
| (8,9-cis)-9-Phenyl-N-(4-(trifluoromethyl)phenyl)-6,7,8,9-tetrahydro-5H-pyrrolo[1,2-a]azepine-8-carboxamide [Example 112] | − (− indicates < 10-fold) | > 1000 nM |

Second part, the compound after the results:

| Selectivity, CB2 vs. CB1 [1] | IC50 (radioligand displacement) (Human CB2) | Compound |
| --- | --- | --- |
| + (+ indicates > 10-fold) | < 1000 nM | CC(C)(C)c1ccc(C2[C@@H]3CCCN3CCCN2C(=O)Nc2ccc(F)cc2F)cc1 (stereo partly drawn) [Example 129, (9aS)-1-(4-tert-Butylphenyl)-N-(2,4-difluorophenyl)hexahydro-1H-pyrrolo[1,2-a][1,4]diazepine-2(3H)-carboxamide] |
| + (+ indicates > 10-fold) | < 1000 nM | CC(C)(C)c1ccc(C2c3cccnc3CCCN2C(=O)Nc2ccc(F)cc2F)cc1 (stereo not drawn) [Example 134, 5-(4-tert-Butylphenyl)-N-(2,4-difluorophenyl)-8,9-dihydro-5H-pyrido[3,2-c]azepine-6(7H)-carboxamide] |
| + (+ indicates > 10-fold) | < 1000 nM | CC(C)(C)c1ccc(C2c3cccnc3CCCN2C(=O)Nc2ccc(F)c(F)c2)cc1 (stereo not drawn) [Example 135, 5-(4-tert-Butylphenyl)-N-(3,4-difluorophenyl)-8,9-dihydro-5H-pyrido[3,2-c]azepine-6(7H)-carboxamide] |
| + (+ indicates > 10-fold) | > 1000 nM | CC(C)(C)c1ccc(C2c3cccnc3CCCN2C(=O)Nc2ccc(Cl)cc2Cl)cc1 (stereo not drawn) [Example 136, 5-(4-tert-Butylphenyl)-N-(2,4-dichlorophenyl)-8,9-dihydro-5H-pyrido[3,2-c]azepine-6(7H)-carboxamide] |
| − (− indicates < 10-fold) | > 1000 nM | CC(C)(C)c1ccc(C2c3cccnc3OCCN2C(=O)Nc2ccc(F)cc2F)cc1 (stereo not drawn) [Example 138, 5-(4-tert-Butylphenyl)-N-(2,4-difluorophenyl)-2,3-dihydropyrido[3,2-f][1,4]oxazepine-4(5H)-carboxamide] |
| + (+ indicates > 10-fold) | > 1000 nM | CC(C)(C)c1ccc(C2c3cccnc3OCCN2C(=O)Nc2ccc(F)c(F)c2)cc1 (stereo not drawn) [Example 139, 5-(4-tert-Butylphenyl)-N-(3,4-difluorophenyl)-2,3-dihydropyrido[3,2-f][1,4]oxazepine-4(5H)-carboxamide] |
| − (− indicates < 10-fold) | > 1000 nM | CC(C)(C)c1ccc(C2c3cccnc3OCCN2C(=O)Nc2ccc(Cl)cc2Cl)cc1 (stereo not drawn) [Example 140, 5-(4-tert-Butylphenyl)-N-(2,4-dichlorophenyl)-2,3-dihydropyrido[3,2-f][1,4]oxazepine-4(5H)-carboxamide] |
